Laboratory results as given in patent US4897506A, “Isolation of alpha-l-aspartyl-l-phenylalanine methyl ester from aqueous medium” (Mitsui Toatsu Chemicals, Incorporated, priority 1987, dated 1990).
Residues, ends and D or L forms follow the SMILES beside them.

Legend:
[1] = Method for Testing Solubilization: time required for completely dissolving crushed α-APM sample in water; assay type: physicochemical; settings: 26±2° C.; for time required for completely dissolving the sample (solubilization test): 250 mg crushed sample in 250 ml purified water, magnetic stirrer 350-360 rpm, stirring and standing alternated every 30 seconds; for Solubilization (minutes), Table 1 / Solubilization (min), Table 2: 250 mg in 250 ml purified water, stirring/standing every 30 seconds
Protocol: Crushed α-APM sample (250 mg) is poured into 250 ml of purified water at 26±2° C. with stirring by a magnetic stirrer at 350- 360 rpm. Stirring and standing are alternately repeated for every 30 seconds and the time required for completely dissolving the sample is measured.

[2] = pH; cited from earlier work
[3] = Solubilization of conventionally recrystallized α-APM (background); assay type: physicochemical; settings: 250 mg in 250 ml water, room temperature
Description: α-APM purified by conventional recrystallization methods has the disadvantage of poor solubilization (rate of solution) in water.

[4] = crystallized by cooling without forced flow, Japanese Laid-Open Patent No. 177952/1983; cited from earlier work
[5] = Thermal stability in solution (diketopiperazine formation); assay type: physicochemical; settings: aqueous medium, temperatures higher than 70° C.
[6] = Hard block formation on drying; assay type: physicochemical; settings: dry crystalline α-APM

Row | time required for completely dissolving the sample (solubilization test) [1] [min] | Structure (SMILES) | also measured
1 | ≤ 5 | COC(=O)[C@H](Cc1ccccc1)NC(=O)[C@@H](N)CC(=O)O [Example 1, α-L-aspartyl-L-phenylalanine methyl ester] (H-Asp-Phe-OMe) | 
2 | ≤ 5 | COC(=O)[C@H](Cc1ccccc1)NC(=O)[C@@H](N)CC(=O)O [Example 2, α-L-aspartyl-L-phenylalanine methyl ester] (H-Asp-Phe-OMe) | 
3 | ≤ 5 | COC(=O)[C@H](Cc1ccccc1)NC(=O)[C@@H](N)CC(=O)O [Example 3, α-L-aspartyl-L-phenylalanine methyl ester] (H-Asp-Phe-OMe) | 
4 | ≤ 5 | COC(=O)[C@H](Cc1ccccc1)NC(=O)[C@@H](N)CC(=O)O [Example 4, α-L-aspartyl-L-phenylalanine methyl ester] (H-Asp-Phe-OMe) | 
5 |  | COC(=O)[C@H](Cc1ccccc1)NC(=O)[C@@H](N)CC(=O)O [Example 5, α-L-aspartyl-L-phenylalanine methyl ester] (H-Asp-Phe-OMe) | Solubilization (minutes), Table 1 ([1]; listed as Ex. 5): 6.5 min
6 |  | COC(=O)[C@H](Cc1ccccc1)NC(=O)[C@@H](N)CC(=O)O [Example 6, α-L-aspartyl-L-phenylalanine methyl ester] (H-Asp-Phe-OMe) | Solubilization (minutes), Table 1 ([1]; listed as Ex. 6): 6.5 min
7 |  | COC(=O)[C@H](Cc1ccccc1)NC(=O)[C@@H](N)CC(=O)O [Example 7, α-L-aspartyl-L-phenylalanine methyl ester] (H-Asp-Phe-OMe) | Solubilization (minutes), Table 1 ([1]; listed as Ex. 7): 4.5 min
8 |  | COC(=O)[C@H](Cc1ccccc1)NC(=O)[C@@H](N)CC(=O)O [Example 8, α-L-aspartyl-L-phenylalanine methyl ester] (H-Asp-Phe-OMe) | Solubilization (minutes), Table 1 ([1]; listed as Ex. 8): 5.5 min
9 |  | COC(=O)[C@H](Cc1ccccc1)NC(=O)[C@@H](N)CC(=O)O [Example 9, α-L-aspartyl-L-phenylalanine methyl ester] (H-Asp-Phe-OMe) | Solubilization (minutes), Table 1 ([1]; listed as Ex. 9): 7.5 min
10 |  | COC(=O)[C@H](Cc1ccccc1)NC(=O)[C@@H](N)CC(=O)O [Example 10, α-L-aspartyl-L-phenylalanine methyl ester] (H-Asp-Phe-OMe) | Solubilization (minutes), Table 1 ([1]; listed as Ex. 10): 5.5 min
11 | 6.5 | COC(=O)[C@H](Cc1ccccc1)NC(=O)[C@@H](N)CC(=O)O [Example 11, α-L-aspartyl-L-phenylalanine methyl ester] (H-Asp-Phe-OMe) | 
12 | 5.5 | COC(=O)[C@H](Cc1ccccc1)NC(=O)[C@@H](N)CC(=O)O [Example 12, α-L-aspartyl-L-phenylalanine methyl ester] (H-Asp-Phe-OMe) | 
13 | 5.5 | COC(=O)[C@H](Cc1ccccc1)NC(=O)[C@@H](N)CC(=O)O [Example 13, α-L-aspartyl-L-phenylalanine methyl ester] (H-Asp-Phe-OMe) | 
14 | 6.5 | COC(=O)[C@H](Cc1ccccc1)NC(=O)[C@@H](N)CC(=O)O [Example 14, α-L-aspartyl-L-phenylalanine methyl ester] (H-Asp-Phe-OMe) | 
15 | 5.5 | COC(=O)[C@H](Cc1ccccc1)NC(=O)[C@@H](N)CC(=O)O [Example 15, α-L-aspartyl-L-phenylalanine methyl ester] (H-Asp-Phe-OMe) | 
16 | ≤ 5 | COC(=O)[C@H](Cc1ccccc1)NC(=O)[C@@H](N)CC(=O)O [Example 16, α-L-aspartyl-L-phenylalanine methyl ester] (H-Asp-Phe-OMe) | 
17 | ≤ 5 | COC(=O)[C@H](Cc1ccccc1)NC(=O)[C@@H](N)CC(=O)O [Example 17, α-L-aspartyl-L-phenylalanine methyl ester] (H-Asp-Phe-OMe) | 

Row | time required for completely dissolving the sample (solubilization test) [1] [min] | Structure (SMILES) | also measured
18 | ≤ 5 | COC(=O)[C@H](Cc1ccccc1)NC(=O)[C@@H](N)CC(=O)O [Example 18, α-L-aspartyl-L-phenylalanine methyl ester] (H-Asp-Phe-OMe) | 
19 |  | COC(=O)[C@H](Cc1ccccc1)NC(=O)[C@@H](N)CC(=O)O [Example 19, α-L-aspartyl-L-phenylalanine methyl ester] (H-Asp-Phe-OMe) | Solubilization (min), Table 2 [1]: 5.5 min
20 |  | COC(=O)[C@H](Cc1ccccc1)NC(=O)[C@@H](N)CC(=O)O [Example 20, α-L-aspartyl-L-phenylalanine methyl ester] (H-Asp-Phe-OMe) | Solubilization (min), Table 2 [1]: 5.5 min
21 |  | COC(=O)[C@H](Cc1ccccc1)NC(=O)[C@@H](N)CC(=O)O [Example 21, α-L-aspartyl-L-phenylalanine methyl ester] (H-Asp-Phe-OMe) | Solubilization (min), Table 2 [1]: 5.5 min
22 |  | COC(=O)[C@H](Cc1ccccc1)NC(=O)[C@@H](N)CC(=O)O [Example 22, α-L-aspartyl-L-phenylalanine methyl ester] (H-Asp-Phe-OMe) | Solubilization (min), Table 2 [1]: 5.0 min
23 | ≤ 5 | COC(=O)[C@H](Cc1ccccc1)NC(=O)[C@@H](N)CC(=O)O [Example 23, α-L-aspartyl-L-phenylalanine methyl ester] (H-Asp-Phe-OMe) | 
24 | 12.5 | COC(=O)[C@H](Cc1ccccc1)NC(=O)[C@@H](N)CC(=O)O [compound 1, α-L-aspartyl-L-phenylalanine methyl ester, reference compound] (H-Asp-Phe-OMe) | 
25 | 11.5 | COC(=O)[C@H](Cc1ccccc1)NC(=O)[C@@H](N)CC(=O)O [compound 2, α-L-aspartyl-L-phenylalanine methyl ester, reference compound] (H-Asp-Phe-OMe) | 
26 | 12.5 | COC(=O)[C@H](Cc1ccccc1)NC(=O)[C@@H](N)CC(=O)O [compound 3, α-L-aspartyl-L-phenylalanine methyl ester, reference compound] (H-Asp-Phe-OMe) | 
27 | 13.5 | COC(=O)[C@H](Cc1ccccc1)NC(=O)[C@@H](N)CC(=O)O [compound 4, α-L-aspartyl-L-phenylalanine methyl ester, reference compound] (H-Asp-Phe-OMe) | 
28 |  | COC(=O)[C@H](Cc1ccccc1)NC(=O)[C@@H](N)CC(=O)O [compound 5, α-L-aspartyl-L-phenylalanine methyl ester, reference compound] (H-Asp-Phe-OMe) | Solubilization (minutes), Table 1 ([1]; listed as Comp. Ex. 5): 12.5 min
29 |  | COC(=O)[C@H](Cc1ccccc1)NC(=O)[C@@H](N)CC(=O)O [compound 6, α-L-aspartyl-L-phenylalanine methyl ester, reference compound] (H-Asp-Phe-OMe) | Solubilization (minutes), Table 1 ([1]; listed as Comp. Ex. 6): 13.5 min
30 | 13.5 | COC(=O)[C@H](Cc1ccccc1)NC(=O)[C@@H](N)CC(=O)O [compound 7, α-L-aspartyl-L-phenylalanine methyl ester, reference compound] (H-Asp-Phe-OMe) | 
31 | 12.5 | COC(=O)[C@H](Cc1ccccc1)NC(=O)[C@@H](N)CC(=O)O [compound 8, α-L-aspartyl-L-phenylalanine methyl ester, reference compound] (H-Asp-Phe-OMe) | 
32 | 12 | COC(=O)[C@H](Cc1ccccc1)NC(=O)[C@@H](N)CC(=O)O [compound 9, α-L-aspartyl-L-phenylalanine methyl ester, reference compound] (H-Asp-Phe-OMe) | 
33 |  | COC(=O)[C@H](Cc1ccccc1)NC(=O)[C@@H](N)CC(=O)O [α-APM, α-L-aspartyl-L-phenylalanine methyl ester] (H-Asp-Phe-OMe) | isoelectric point [2]: 5.6; time required to dissolve completely ([3]; crushed powder recrystallized from 50 vol. % aqueous methanol, stirring and standing every 30 seconds): more than 15 minutes; undissolved α-APM after 5 minutes ([3]; recrystallized from 50 vol. % aqueous methanol): a significant amount of undissolved α-APM remains even after 5 minutes; solubilization compared to conventionally crystallized product [4]: excellent solubilization as compared to conventionally crystallized product; thermal stability in solution [5]: diketopiperazine compound is undesirably formed as by-product; hard block formation in the dry state [6]: forms a hard block in the dry state
